The test system of one data set is rNeu^+ (NF 9006) tumors. The format is in vivo, mice. To be noted: established rNeu+ tumors, i.v. every 3-4 days; comparison between treatments.
For a further data set, the system named is rNeu^+ tumor cells. The format is in vivo, mice. As to the method:
FIG. 6: Effect of virosome treatment on recently implanted tumors. 2×10^5 rNeu^+ tumor cells were injected s.c. and treatment was started 3-5 days later. I.v. injections of the different virosome formulations such as Doxo-Vir, Fab′-Doxo-Vir, Fab′-Vir and free Doxo (all at a concentration of 150 μg/ml doxorubicin) were performed at the indicated time points (arrows) for a period of three weeks. Tumor size was assessed twice a week during therapy and weekly in the follow-up period. Tumor formation (defined as volume >90 mm^3) in the different groups and the follow-up of >12 weeks is shown. Statistical analysis using Mann-Whitney rank test was performed. Control groups (◯), free Doxo (▾), Doxo-Vir (♦), Fab′-Vir (●), Fab′-Doxo-Vir (▪)
In another preferred embodiment of the invention, conjugated virosomes are used to arrest the metastatic spread of tumors. […] The effect of Fab′ conjugated virosomes on the growth of tumor metastases is assessed as follows. […] Tumor formation is assessed by palpation followed by measurement of tumor size as described in the previous example. […]
For the micrometastatic stage of tumor formation, 0.2×10^6 tumor cells are injected s.c. and treatment is started 3-5 days later. […] Tumor formation is assessed by palpation followed by measurement of tumor size as described in the previous example. […]

The conditions of data set [1]: cited from earlier work.

SMILES strings stand for the structures. Read-outs that look alike come from different tables or passages of the source.

Consider 1 compound from patent US20040028687A1, “Methods and compositions for the targeted delivery of therapeutic substances to specific cells and tissues” (priority 2002, published 2004).

`COc1cccc2c1C(=O)c1c(O)c3c(c(O)c1C2=O)C[C@@](O)(C(=O)CO)C[C@@H]3O[C@H]1C[C@H](N)[C@H](O)[C@H](C)O1` [free Doxo, doxorubicin]: the “tumor progression compared with another treatment group” value with rNeu^+ (NF 9006) tumors is “no significant difference in tumor progression”. Also, in the data set on rNeu^+ tumor cells (2×10^5 rNeu+ cells s.c., treatment from day 3-5, 9 injections over 3 weeks, tumor formation >90 mm^3), the “median time to tumor formation” value amounted to 20 days. The tumor development result with rNeu^+ tumor cells (within 4 weeks after tumor cell inoculation, all mice of the group) is reported as “developed tumors”. The tolerated dose in data set [1] (SCID mice) is 2 to 3 mg/kg; in data set [1] (normal mice) it was 6 mg/kg.
